In patent publication US6716836B2, “Non-nucleoside reverse transcriptase inhibitors” (Boehringer Ingelheim (Canada) Ltd., priority 2001, dated 2004):

How the values were obtained:
[1] = system: HIV replication in T-lymphocytes, virus coding for mutant enzyme K103N/Y181C; assay: ELISA (p24) assay for activity in cell culture, mutant virus; format: cell-based; settings: Human immunodeficiency virus 1, T-lymphocyte, read-out: EC50 K103N/Y181C
Procedure: (§1) ELISA Assay for Assessment of Activity in Cell Culture
(§2) Compounds of the invention were tested for their ability to inhibit HIV replication in cell culture. Viruses coding for Wild type and mutant enzymes were used. T-lymphocytes were infected with the virus, infected cells were incubated in the presence of varying amounts of compounds of the invention, and an ELISA assay for the viral protein p24 was used to quantify viral replication. Table 9 lists the results as EC50 (nM).

HIV-1 RT wild type (WT) = target: T1, HIV-1 RT wild type (WT) (Human immunodeficiency virus type 1 group M subtype B, UniProt P04585); assay: Reverse Transcriptase (RT) assay, wild type enzyme; format: biochemical
T1 construct: Heterodimeric RT was eluted using a descending gradient; made in house; host or cells: E. coli
Source text: (§3) Among the enzymes for which Human Immunodeficiency Virus (HIV-1) encodes is a reverse transcriptase (1), so-named because it transcribes a DNA copy from an RNA template. This activity can be quantitatively measured in a cell-free enzyme assay, which has been previously described (2), and is based upon the observation that reverse transcriptase is able to use a synthetic template poly r(C) primed with oligo d(G) to transcribe a radio-labelled, acid-precipitable DNA strand utilising ^3H-dGTP as a substrate. The assay described below utilises the wild type (WT) enzyme, which is the predominant form of the enzyme observed with patients infected with HIV-1. Utilisation of mutant RT enzymes (for example, Y181C, prepared by site-directed mutagenesis in which the tyrosine residue at codon 181 has been replaced by a cysteine residue, or the mutants K103N, V106A and Y188C) and analogous assay conditions allows compounds to be evaluated for their effectiveness at inhibiting the mutant enzymes.
(§4) The HIV-1 RT expression clone, pKRT2, was obtained from Yale University (3). An overnight culture, grown in 2×YT medium (37° C., 225 rpm) (4), supplemented with 100 μg/mL ampicillin for positive selection was used to inoculate the 2×YT medium. The culture was incubated (37° C., 225 rpm) until it reached an OD600 of 0.6-0.9. At that time, the repressor inhibitor IPTG (isopropyl P-D-thiogalactopyranoside) was added to 0.5 mM, and the mixture was incubated for an additional 2 hours.
(§5) Purification of recombinant reverse transcriptase was performed using a combination of methods previously described (5). This procedure is summarised briefly as follows: E. Coli containing RT-1 wt or RT-1 (Y181 C) were suspended in 50 mM MES, pH 6.0 containing 10% glycerol, lysed in a French press, centrifuged, and the supernates discarded. Lysate pellets were extracted with buffer A (50 mM MES, pH 6.0, 100 mM KCl, 50 mM KPi, 10% glycerol, 0.02% hexyl-β-glucoside), and re-centrifuged; nucleic acid in supernates was precipitated with 0.1% polyethylenimine. […] Bound RT was eluted with a gradient of 0 to 1.0M
(§6) (NH4)2 SO4 in buffer B. Heparin-Sepharose fractions containing RT were concentrated (Amicon YM-30 membrane), combined with equal volumes of 2.0M (NH4)2SO4 in buffer B and injected onto a 21.5×150 mm TSK Phenyl-5PW HIC HPLC column (Phenomenex). Heterodimeric RT was eluted using a descending gradient of 1.0M to 0M (NH4)2SO4 in buffer B, concentrated, and stored at 4° C.
(§7) The 2.4× concentrated stock reaction mixture was aliquoted and stored at −20° C. The mixture is stable and can be thawed for use in each assay. This enzyme assay has been adapted to a 96 well microtiter plate system, and has been previously described (6). Tris buffer (50 mM, pH 7.8), vehicle (solvent diluted to match the compound dilution), or compounds in vehicle were dispensed into 96-well microtiter plates (10 μL/well; 3 wells/compound). The HIV-1 RT enzyme was thawed, diluted in 50 mM Tris pH 7.8 containing 0.05% Chaps to give 1.5 nM enzyme and 25 μL were dispensed per well. Ten μL of 0.5M EDTA were added to the first three wells of the microtiter plate. EDTA chelates the Mg^2+ present and prevents reverse transcription. This group served as background polymerisation, which was subtracted, from all other groups. Twenty-five μl of the 2.4× reaction mixture was added to all wells and the assay was allowed to incubate at room temperature for 30 minutes. The assay was terminated by precipitating the DNA in each well with 60 μL of sodium pyrophosphate (2% w/v) in 10% trichloroacetic acid (TCA) (10% w/v). The microtiter plate was incubated for 15 minutes at 4° C. and the precipitate was harvested onto #30 glass fibre paper (Schleicher & Schuell) using a Tomtech 96-well harvester. The filters were dried, placed in plastic bags with Betaplate scintillation cocktail (Pharmacia/LKB) and counted in the Betaplate counter (Pharmacia/LKB).
(§8) The calculation for percent inhibition is as follows: [formula] […]

[2] = target: T2, HIV-1 RT double mutant K103N/Y181C (Human immunodeficiency virus type 1 group M subtype B, UniProt P04585, K690N/Y768C); assay: Reverse Transcriptase (RT) assay, double mutant enzyme; format: biochemical
T2 construct: Heterodimeric RT was eluted using a descending gradient; made in house; host or cells: E. coli (inferred; the text describes only wild type and Y181C preparations)
Source text: as §3, §4, §5, §6, §7, §8

[3] = system: HIV replication in T-lymphocytes, virus coding for wild type enzyme; assay: ELISA (p24) assay for activity in cell culture, wild type virus; format: cell-based; settings: Human immunodeficiency virus 1, T-lymphocyte, read-out: EC50 WT RT
Procedure: as §1, §2

Compound | EC50 [1] [nM] | IC50 (HIV-1 RT wild type (WT)) [nM] | IC50 [2] [nM] | EC50 [3] [nM]
CCN1c2ncc(CCOc3cccc4c3CS(=O)(=O)N4)cc2C(=O)N(C)c2cccnc21 [Compound 101] | < 100 | < 100 | 100 to 1000 | 
CCN1c2ncc(CCOc3cccc4c3CS(=O)(=O)N4)cc2C(=O)N(C)c2ccc(F)nc21 [Compound 103] | < 100 | < 100 | 100 to 1000 | < 100
CCN1c2ncc(CCOc3cccc4c3CS(=O)(=O)N4)cc2C(=O)Nc2c(C)cc(F)nc21 [Compound 110] | < 100 | < 100 | 100 to 1000 | < 100
CCN1c2ncc(CCOc3cccc4c3CS(=O)(=O)N4C)cc2C(=O)Nc2c(C)cc(C)nc21 [Compound 117] |  | < 100 | < 100 | < 100
CCN1c2ncc(CCOc3cccc4c3CS(=O)(=O)N4CC(=O)O)cc2C(=O)N(C)c2cccnc21 [Compound 127] | 100 to 1000 | < 100 | 100 to 1000 | < 100
CCN1c2ncc(CCOc3cccc4c3CS(=O)(=O)N4CCO)cc2C(=O)N(C)c2cccnc21 [Compound 129] | < 100 | < 100 | < 100 | < 100
CCN1c2ncc(CCOc3cccc4c3CS(=O)(=O)N4Cc3cc[n+]([O-])cc3)cc2C(=O)N(C)c2cccnc21 [Compound 130] | < 100 | < 100 | < 100 | < 100
CCN1c2ncc(CCOc3cccc4c3CS(=O)(=O)N4Cc3cccnc3)cc2C(=O)N(C)c2cccnc21 [Compound 131] | < 100 | < 100 | < 100 | < 100
CCN1c2ncc(CCOc3cccc4c3CS(=O)(=O)N4Cc3ccc[n+]([O-])c3)cc2C(=O)N(C)c2cccnc21 [Compound 132] | < 100 | < 100 | < 100 | < 100
CCN1c2ncc(CCOc3cccc4c3CS(=O)(=O)N4Cc3cc[n+]([O-])cc3)cc2C(=O)Nc2c(C)ccnc21 [Compound 136] | < 100 | < 100 | < 100 | < 100
CCN1c2ncc(CCOc3cccc4c3CS(=O)(=O)N4Cc3ccc[n+]([O-])c3)cc2C(=O)Nc2c(C)ccnc21 [Compound 137] | < 100 | < 100 | < 100 | < 100
CCN1c2ncc(CCOc3cccc4c3CS(=O)(=O)N4CC(C)C(=O)O)cc2C(=O)N(C)c2cccnc21 (centres unmarked) [Compound 138] | < 100 | < 100 | < 100 | < 100
CCN1c2ncc(CCOc3cccc4c3CS(=O)(=O)N4CC(=O)Nc3cc[n+]([O-])cc3)cc2C(=O)N(C)c2cccnc21 [Compound 141] | < 100 | < 100 | < 100 | < 100
CCN1c2ncc(CCOc3cccc4c3CS(=O)(=O)N4CC(=O)Nc3cc[n+]([O-])cc3)cc2C(=O)Nc2c(C)cc(Cl)nc21 [Compound 147] | < 100 | < 100 | < 100 | < 100
CCN1c2ncc(CCOc3cccc4c3CNS4(=O)=O)cc2C(=O)N(C)c2cccnc21 [Compound 202] | < 100 | < 100 | < 100 | < 100
CCN1c2ncc(CCOc3cccc4c3CNS4(=O)=O)cc2C(=O)Nc2c(C)cc(F)nc21 [Compound 223] | < 100 | < 100 | < 100 | < 100
CCN1c2ncc(CCOc3ccc4c(c3)C(C)(C)NS4(=O)=O)cc2C(=O)Nc2c(C)ccnc21 [Compound 311] | < 100 | < 100 | 100 to 1000 | < 100

Compound | EC50 [1] [nM] | IC50 (HIV-1 RT wild type (WT)) [nM] | IC50 [2] [nM] | EC50 [3] [nM]
CCN1c2ncc(CCOc3cccc4c3CCS(=O)(=O)N4)cc2C(=O)N(C)c2cccnc21 [Compound 601] | < 100 | < 100 | < 100 | < 100
CCN1c2ncc(CCOc3cccc4c3CCS(=O)(=O)N4)cc2C(=O)Nc2c(C)cc(F)nc21 [Compound 602] | < 100 | < 100 | < 100 | < 100
CCN1c2ncc(CCOc3cccc4c3CCS(=O)(=O)N4CC(=O)OC)cc2C(=O)N(C)c2cccnc21 [Compound 616] | < 100 | < 100 | < 100 | < 100
CCN1c2ncc(CCOc3cccc4c3CCS(=O)(=O)N4C(=O)N3CCOCC3)cc2C(=O)N(C)c2cccnc21 [Compound 618] |  | < 100 | < 100 | 
CCN1c2ncc(CCOc3cccc4c3CCS(=O)(=O)N4C(=O)N3CCCC3)cc2C(=O)N(C)c2cccnc21 [Compound 619] |  | < 100 | < 100 | 
CCN1c2ncc(CCOc3cccc4c3CCS(=O)(=O)N4C(=O)N3CCN(C)CC3)cc2C(=O)N(C)c2cccnc21 [Compound 620] |  | < 100 | < 100 | 
CCN1c2ncc(CCOc3cccc4c3CCS(=O)(=O)N4Cc3csc(C)n3)cc2C(=O)N(C)c2cccnc21 [Compound 622] |  | < 100 | < 100 | 
CCN1c2ncc(CCOc3cccc4c3CCS(=O)(=O)N4CC(=O)N3CCCC3)cc2C(=O)N(C)c2cccnc21 [Compound 623] |  | < 100 | < 100 | 
CCN1c2ncc(CCOc3cccc4c3CCS(=O)(=O)N4CS(C)(=O)=O)cc2C(=O)N(C)c2cccnc21 [Compound 627] |  | < 100 | < 100 | 
CCN1c2ncc(CCOc3cccc4c3CCS(=O)(=O)N4Cc3ccc[n+]([O-])c3)cc2C(=O)N(C)c2cccnc21 [Compound 632] |  | < 100 | < 100 | 
CCN1c2ncc(CCOc3cccc4c3CCS(=O)(=O)N4CCCC(N)=O)cc2C(=O)N(C)c2cccnc21 [Compound 635] |  | < 100 | < 100 | 
CCN1c2ncc(CCOc3cccc4c3CCS(=O)(=O)N4Cc3ncc[nH]3)cc2C(=O)N(C)c2cccnc21 [Compound 642] |  | < 100 | < 100 | 
CCN1c2ncc(CCOc3cccc4c3CCNS4(=O)=O)cc2C(=O)N(C)c2cccnc21 [Compound 712] |  | < 100 | < 100 | 
CCN1c2ncccc2NC(=O)c2cc(CCOc3cccc4c3C=CS(=O)(=O)N4C)cnc21 [Compound 805] |  | < 100 | 100 to 1000 | 
CCN1C(=O)c2cc(CCOc3cccc4c3C=CS(=O)(=O)N4C)cnc2N(CC)c2ncccc21 [Compound 806] |  | < 100 | < 100 | 
CCN1c2ncc(CCOc3cccc4c3C=CS(=O)(=O)N4CC)cc2C(=O)N(C)c2cccnc21 [Compound 807] |  | < 100 | < 100 | 
